US8426587B2, “Haloallylamine inhibitors of SSAO/VAP-1 and uses therefor” (Pharmaxis Ltd., priority 2007, dated 2013)
Counter-ions that a name gives are not always drawn. Like-named read-outs stand apart in the source and are kept apart here.

Legend:
Human MAO-B = target: T1, Human MAO-B (Homo sapiens, UniProt P27338); test: Inhibition of recombinant MAO-B (Amplex Red); type: biochemical; settings: 50 μM benzylamine
T1 sequence (P27338 1-520): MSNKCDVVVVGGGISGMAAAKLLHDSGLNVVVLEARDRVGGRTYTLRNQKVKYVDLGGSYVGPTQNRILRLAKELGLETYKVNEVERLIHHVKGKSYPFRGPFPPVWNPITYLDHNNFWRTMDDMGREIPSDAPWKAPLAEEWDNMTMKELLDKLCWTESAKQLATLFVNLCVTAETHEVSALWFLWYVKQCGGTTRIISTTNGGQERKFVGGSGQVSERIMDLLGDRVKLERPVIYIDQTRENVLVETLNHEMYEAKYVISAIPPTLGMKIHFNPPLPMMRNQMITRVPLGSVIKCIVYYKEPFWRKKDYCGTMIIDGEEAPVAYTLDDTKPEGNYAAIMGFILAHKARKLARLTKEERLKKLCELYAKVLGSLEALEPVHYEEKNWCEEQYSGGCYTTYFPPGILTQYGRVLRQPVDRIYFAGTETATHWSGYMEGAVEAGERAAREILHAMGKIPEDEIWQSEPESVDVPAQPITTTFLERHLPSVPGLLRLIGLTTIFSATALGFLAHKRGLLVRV
Method: Recombinant MAO-B was incubated in 0.1 M sodium phosphate buffer pH 7.4 with varying concentration of test compounds for 30 min at 37° C. The homogenate/protein was then incubated at 37° C. with […] Amplex® Red, 0.75 U/ml HRP and 40 μM benzylamine (mouse SSAO), 300 μM benzylamine (human SSAO), 100 μM tyramine (MAO-A) or 50 μM benzylamine (MAO-B) and the formation of resorufin was measured (excitation range 530-560 nm and emission at 590 nm) every 5 min in either a Tecan Infinite 200 or a BMG Fluorostar Optima platereader. IC50 were estimated using Graphpad Prism software.

SSAO/VAP-1 = target: T2, SSAO/VAP-1 (Mus musculus, UniProt O70423); test: In vivo inhibition of SSAO/VAP-1 activity in mouse genital fat; set-up: species or system BALB/C mice; settings: ip
T2 construct: the genital fat was excised and frozen; The tissue was homogenized; from tissue; host or cells: genital fat of BALB/C mice
T2 sequence (O70423 1-765): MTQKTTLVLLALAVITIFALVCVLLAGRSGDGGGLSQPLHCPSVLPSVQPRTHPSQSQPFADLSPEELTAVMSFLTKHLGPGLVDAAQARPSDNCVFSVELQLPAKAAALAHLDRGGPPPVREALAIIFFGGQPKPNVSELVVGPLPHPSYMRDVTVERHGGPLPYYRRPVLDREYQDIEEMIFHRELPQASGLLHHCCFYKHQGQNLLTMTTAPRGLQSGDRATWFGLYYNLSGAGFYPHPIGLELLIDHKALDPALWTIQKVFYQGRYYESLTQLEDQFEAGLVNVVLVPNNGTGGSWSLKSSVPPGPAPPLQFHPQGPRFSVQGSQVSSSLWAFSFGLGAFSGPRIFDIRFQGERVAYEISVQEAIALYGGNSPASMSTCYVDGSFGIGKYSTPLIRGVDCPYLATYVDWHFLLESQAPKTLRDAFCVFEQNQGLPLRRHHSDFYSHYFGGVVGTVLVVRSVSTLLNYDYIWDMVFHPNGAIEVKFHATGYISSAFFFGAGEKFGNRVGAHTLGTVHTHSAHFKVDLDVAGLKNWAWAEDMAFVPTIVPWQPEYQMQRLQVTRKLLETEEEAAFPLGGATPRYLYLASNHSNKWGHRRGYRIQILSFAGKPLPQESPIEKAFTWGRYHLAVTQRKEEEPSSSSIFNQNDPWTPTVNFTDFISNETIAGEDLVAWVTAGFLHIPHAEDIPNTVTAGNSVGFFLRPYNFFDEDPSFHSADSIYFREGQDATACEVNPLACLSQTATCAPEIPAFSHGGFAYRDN
Method: In vivo inhibition was assessed in mouse genital fat, a tissue with high SSAO/VAP-1 expression. 10 BALB/C mice (5 males and 5 females) were administered 0 mg/kg, 10 mg/kg, 30 mg/kg or 100 mg/kg SSAO/VAP-1 inhibitor by intraperitoneal injection. Two hours after administration the mice were sacrificed and the genital fat was excised and frozen. The tissue was homogenized in 0.01 M sodium phosphate buffer pH 7.4 (10 mL/g) and used to measure SSAO activity using Amplex® Red. ED50 was estimated Using Graphpad Prism software.

[1] = tested on: LPS-induced pulmonary inflammation; settings: cited from earlier work
[2] = tested on: experimental autoimmune encephalomyelitis; settings: reported in US 2006/0025438 A1; cited from earlier work
[3] = female BALB/C mice, intraperitoneal, genital fat SSAO activity two hours after administration, read-out: Female Mice ED50 [ip]
[4] = male BALB/C mice, intraperitoneal, genital fat SSAO activity two hours after administration, read-out: Male Mice ED50 [ip]

SMILES | IC50 (Human MAO-B; 30 min at 37° C. preincubation) [nM] | ED50 (SSAO/VAP-1; [3]) [mg/kg] | ED50 (SSAO/VAP-1; [4]) [mg/kg] | IC50 (Human MAO-B) [nM] | ED50 (SSAO/VAP-1; read-out: Female Mice ED50 [ip]) [mg/kg] | ED50 (SSAO/VAP-1; read-out: Male Mice ED50 [ip]) [mg/kg] | BAL cell counts ([1]; mouse overexpressing human SSAO/VAP-1, LPS) | LPS-induced increase in TNF-a ([1]; mouse overexpressing human SSAO/VAP-1) | Inhibition of experimental autoimmune encephalomyelitis [2]
CS(=O)(=O)c1ccc(OC/C(F)=C\CN)cc1.Cl [(E)-3-Fluoro-4-(4-(methylsulfonyl)phenoxy)but-2-en-1-amine hydrochloride] | < 100000 | < 300 | < 100 |  |  |  |  |  | 
NC/C=C(/F)COc1ccc(C(=O)NC2CCCCC2)cc1 [(E)-4-(4-amino-2-fluorobut-2-enyloxy)-N-cyclohexylbenzamide hydrochloride] | < 1000 |  |  |  | < 50 | < 50 |  |  | 
Cc1nc2cc(OC/C(F)=C\CN)ccc2s1.Cl [(E)-3-Fluoro-4-(2-methylbenzo[d]thiazol-5-yloxy)but-2-en-1-amine hydrochloride] | < 100000 | < 100 | < 50 |  |  |  |  |  | 

Further lines, with some results ahead:

IC50 (Human MAO-B; 30 min at 37° C. preincubation) [nM] | ED50 (SSAO/VAP-1; [3]) [mg/kg] | ED50 (SSAO/VAP-1; [4]) [mg/kg] | IC50 (Human MAO-B) [nM] | SMILES | ED50 (SSAO/VAP-1; read-out: Female Mice ED50 [ip]) [mg/kg] | ED50 (SSAO/VAP-1; read-out: Male Mice ED50 [ip]) [mg/kg] | BAL cell counts ([1]; mouse overexpressing human SSAO/VAP-1, LPS) | LPS-induced increase in TNF-a ([1]; mouse overexpressing human SSAO/VAP-1) | Inhibition of experimental autoimmune encephalomyelitis [2]
< 1000 | < 50 | < 50 |  | C[C@H](NS(=O)(=O)c1ccc(OC/C(F)=C\CN)cc1)c1ccccc1.Cl [(S,E)-4-(4-Amino-2-fluorobut-2-enyloxy)-N-(1-phenylethyl)benzenesulfonamide] |  |  |  |  | 
 | < 1 | < 1 | 4 | NC/C(=C/F)CCc1ccc(F)cc1 [Mofegiline, reference compound] |  |  | significantly reduces | significantly attentuates | inhibit experimental autoimmune encephalomyelitis
